# Values of other authors, collected in patent US6027728A, “Herbal skin regeneration composition and method” (priority 1998, dated 2000).
# Tested on: Na+,K(+)-ATPase
# Conditions: not given
row,Structure (SMILES),"inhibition of Na+,K(+)-ATPase activity (in words)"
1,C[C@]12C[C@@H](O)[C@@H]3C[C@@]1(O[C@@H]1O[C@H](CO)[C@@H](O)[C@H](O)[C@H]1O)[C@@]3(COC(=O)c1ccccc1)C(=O)O2 [albiflorin],ineffective
2,O=C(O)c1ccccc1 [benzoic acid],weakly inhibitory
3,Oc1cc(O)c2c(c1)OC(c1ccc(O)c(O)c1)C(O)C2 (stereo not drawn) [catechin],weakly inhibitory
4,C[C@@]12C[C@@]3(O)O[C@@H](O1)[C@]1(COC(=O)c4ccccc4)[C@H]3C[C@@]12O[C@@H]1O[C@H](COC(=O)c2cc(O)c(O)c(O)c2)[C@@H](O)[C@H](O)[C@H]1O [galloylpaeoniflorin],weakly inhibitory
5,C[C@@]12C[C@@]3(O)O[C@@H](O1)[C@]1(COC(=O)c4ccc(O)cc4)[C@H]3C[C@@]12O[C@@H]1O[C@H](CO)[C@@H](O)[C@H](O)[C@H]1O [oxypaeoniflorin],ineffective
6,COc1ccc(C(C)=O)c(O)c1 [paconol],ineffective
7,C[C@@]12C[C@@]3(O)O[C@@H](O1)[C@]1(COC(=O)c4ccccc4)[C@H]3C[C@@]12O[C@@H]1O[C@H](CO)[C@@H](O)[C@H](O)[C@H]1O [paeoniflorin],ineffective
8,Oc1ccccc1 [phenol],ineffective

# Same assay, conditions: with respect to ATP
row,inhibition mode with respect to ATP,Structure (SMILES)
1,noncompetitive,"O=C(OC[C@H]1O[C@@H](OC(=O)c2cc(O)c(O)c(O)c2)[C@H](OC(=O)c2cc(O)c(O)c(O)c2)[C@@H](OC(=O)c2cc(O)c(O)c(O)c2)[C@@H]1OC(=O)c1cc(O)c(O)c(O)c1)c1cc(O)c(O)c(O)c1 [PGG, 1,2,3,4,6-Penta-O-galloyl-beta-D-glucose]"
